The results in this text go back to patent publication US12643892B2, “Pyridazinone compounds for the treatment of neuromuscular diseases” (Edgewise Therapeutics, Inc., priority 2020, dated 2026).

pIC50: −log10 of the molar value. Where only a bound is given, the exact number is not on record here.

The assay concerns the target Skeletal Myofibril ATPase (Rabbit Psoas myofibrils). The assay can be described thus: Skeletal Myofibril ATPase Assay. It is filed as biochemical. The conditions noted are these: PK/LDH-coupled NADH absorbance at 340 nm. The procedure:
Overview: Myosin ATPase activity was assessed by using a coupled reaction system, in which ADP generated by the myosin ATPase function was coupled to the disappearance of NADH through the pyruvate kinase/lactate dehydrogenase (PK-LDH) system. Myosin ATPase activity produces ADP, which was used as a substrate for PK to produce pyruvate and regenerate ATP. The pyruvate was then used as a substrate by LDH to oxidize NADH to NAD+. The rate of the reaction was monitored through the time-dependent disappearance of NADH using absorbance at 340 nm. Inhibition of ATPase activity by the assayed compounds was indicated by a reduced rate of NADH loss, relative to vehicle-treated controls, over the experimental time window. To assess the selectivity of the assayed compounds for skeletal myofibrils, the compounds were counter-screened in cardiac myofibrils.
Materials: The following stock solutions and reagents were used in the Skeletal Myofibril ATPase Assay:
Stock Solutions of pCa buffer. Combine PIPES, CaCl2, and EGTA solutions with 70 mL of water. Adjust pH to 7.0 and bring final volume to 100 mL.
Buffer A & Buffer B. Buffers were stored on ice until use.
Skeletal Myofibril ATPase Assay Procedure: BSA, ATP, NADH, PEP, and DTT solutions were thawed at room temperature, then transferred to ice. Pellet-frozen myofibrils (approximately twice the required volume) were transferred into a sufficiently large tube and capped. Myofibrils were thawed by rolling in a water bath for approximately 15 min at room temperature and cooled on ice. Buffers A and B were prepared by adjusting volumes as necessary for required number of wells and stored on ice. 0.5 μL of the compounds to be assayed were added into wells of a 384-well plate. Buffers A and B were mixed by inversion immediately prior to use, then 25 μL of each was dispensed using a Multidrop dispenser (Buffer A first, then Buffer B). The absorbance within the wells was measured at 340 nm, using a kinetic protocol in which the wells are read every 1.5-2 min for 1 h. The reaction rate was qualitatively assessed by subtracting the minimum absorbance value from the maximum value for each well, using either the SoftMax Pro plate reader software or a spreadsheet program such as Excel. Using GraphPad Prism 8.0, the data was normalized, with 100% activity defined as the absorbance change in the 1% DMSO vehicle wells and 0% assigned to no change in absorbance over the course of the experiment. The normalized data were fit to a variable-slope four-parameter logistic model, constraining the bottom to be 0 or greater. Compounds of Table 1 to 3 were tested and results of the assay appear in Table 4 herein. A=IC50 is less than or equal to 10 μM; B=IC50 is greater than 10 μM and less than 100 μM; C=IC50 is greater than 100 μM.
For the molecule `CCNC(=O)Cn1nc(-c2nc(-c3cncc(C(F)(F)F)c3)no2)ccc1=O` [Compound 10, N-ethyl-2-(6-oxo-3-(3-(5-(trifluoromethyl)pyridin-3-yl)-1,2,4-oxadiazol-5-yl)pyridazin-1(6H)-yl)acetamide], the pIC50 (as a rule, −log10 of the IC50, conventionally taken in molar units) was at least 5.00. In the case of `O=c1ccc(-c2nc(-c3cccc(F)c3)no2)cn1Cc1cccnc1` [Compound 102, 5-(3-(3-fluorophenyl)-1,2,4-oxadiazol-5-yl)-1-(pyridin-3-ylmethyl)pyridin-2(1H)-one], the pIC50 was at least 5.00. Molecule `O=C(Cn1nc(-c2cccs2)ccc1=O)Nc1ccc2c(c1)OCCO2` [Compound 46, N-(2,3-dihydrobenzo[b][1,4]dioxin-6-yl)-2-(6-oxo-3-(thiophen-2-yl)pyridazin-1(6H)-yl)acetamide] had a pIC50 of under 4.00. Turning to `O=c1ccc(-c2nc(-c3cccc(Cl)c3)no2)cn1Cc1cncnc1` [Compound 85, 5-(3-(3-chlorophenyl)-l,2,4-oxadiazol-5-yl)-1-(pyrimidin-5-ylmethyl)pyridin-2(1H)-one], the pIC50 is at least 5.00. With `CC(c1cncc(F)c1)n1cc(-c2nc(-c3cccc(Cl)c3)no2)ccc1=O` (centres unmarked) [Compound 117, 5-(3-(3-chlorophenyl)-1,2,4-oxadiazol-5-yl)-1-(1-(5-fluoropyridin-3-yl)ethyl)pyridin-2(1H)-one], the pIC50 is under 3.92. `O=C(Cn1nc(-c2nnc(-c3ccccn3)s2)ccc1=O)NC1CCC1` [Compound 22, N-cyclobutyl-2-(6-oxo-3-(5-(pyridin-2-yl)-1,3,4-thiadiazol-2-yl)pyridazin-1(6H)-yl)acetamide]: the pIC50 is at least 5.00. For the molecule `CCCNC(=O)Cn1nc(-c2nc(-c3ccc(Cl)cc3)no2)ccc1=O` [Compound 51, 2-(3-(3-(4-chlorophenyl)-1,2,4-oxadiazol-5-yl)-6-oxopyridazin-1(6H)-yl)-N-propylacetamide], the pIC50 is at least 5.00.

In turn, `Cc1cccc(-c2noc(-c3ccc(=O)n(Cc4cccnc4C#N)c3)n2)c1` [Compound 112, 3-((2-oxo-5-(3-(m-tolyl)-1,2,4-oxadiazol-5-yl)pyridin-1(2H)-yl)methyl)picolinonitrile] gave a pIC50 of under 3.92. The molecule `O=c1ccc(-c2nc(-c3ccc(Cl)cc3)no2)cn1Cc1cccnc1` [Compound 125, 5-(3-(4-chlorophenyl)-1,2,4-oxadiazol-5-yl)-1-(pyridin-3-ylmethyl)pyridin-2(1H)-one] had a pIC50 of under 3.92. On to `O=C(Cn1nc(-c2cccs2)ccc1=O)Nc1ccccc1Cl` [Compound 37, N-(2-chlorophenyl)-2-(6-oxo-3-(thiophen-2-yl)pyridazin-1(6H)-yl)acetamide], for which the pIC50 was 4.00 to 5.00.

`Cc1cccc(-c2noc(-c3ccc(=O)n(Cc4cccnc4C)c3)n2)c1` [Compound 118, 1-((2-methylpyridin-3-yl)methyl)-5-(3-(m-tolyl)-1,2,4-oxadiazol-5-yl)pyridin-2(1H)-one] showed a negative-log IC50 (pIC50) of under 3.92. On to `CCNC(=O)Cn1nc(-c2nc(C3CC3)no2)ccc1=O` [Compound 15, 2-(3-(3-cyclopropyl-1,2,4-oxadiazol-5-yl)-6-oxopyridazin-1(6H)-yl)-N-ethylacetamide], for which the pIC50 is 4.00 to 5.00. Molecule `O=c1ccc(-c2cccs2)nn1C/C=C/c1ccccc1` [Compound 62, 2-cinnamyl-6-(thiophen-2-yl)pyridazin-3(2H)-one] gave a pIC50 of under 4.00. Next, `O=C(Cn1nc(-c2ccco2)ccc1=O)NCc1ccccc1F` [Compound 53, N-(2-fluorobenzyl)-2-(3-(furan-2-yl)-6-oxopyridazin-1(6H)-yl)acetamide]: under 4.00; `CCNC(=O)Cn1nc(-c2nc(-c3cncc(Cl)c3)no2)ccc1=O` [Compound 12, 2-(3-(3-(5-chloropyridin-3-yl)-1,2,4-oxadiazol-5-yl)-6-oxopyridazin-1(6H)-yl)-N-ethylacetamide]: at least 5.00. Turning to `O=C(Cn1nc(-c2cccs2)ccc1=O)Nc1ccccc1` [Compound 43, 2-(6-oxo-3-(thiophen-2-yl)pyridazin-1(6H)-yl)-N-phenylacetamide], the pIC50 was under 4.00. With `CCNC(=O)Cn1nc(-c2nc(-c3cccc(C(F)(F)F)c3)no2)ccc1=O` [Compound 11, N-ethyl-2-(6-oxo-3-(3-(3-(trifluoromethyl)phenyl)-1,2,4-oxadiazol-5-yl)pyridazin-1(6H)-yl)acetamide], the pIC50 was at least 5.00.

As for `COc1ccc(NC(=O)Cn2nc(-c3ccco3)ccc2=O)c(OC)c1` [Compound 52, N-(2,4-dimethoxyphenyl)-2-(3-(furan-2-yl)-6-oxopyridazin-1(6H)-yl)acetamide], the pIC50 was 4.00 to 5.00. `O=c1ccc(-c2nc(-c3cncc(Cl)c3)no2)nn1Cc1ccccc1` [Compound 66, 2-benzyl-6-(3-(5-chloropyridin-3-yl)-1,2,4-oxadiazol-5-yl)pyridazin-3(2H)-one] gave a pIC50 of at least 5.00. On to `Cc1ccc(-c2ccc(=O)n(CC(=O)NCc3ccccc3)n2)s1` [Compound 35, N-benzyl-2-(3-(5-methylthiophen-2-yl)-6-oxopyridazin-1(6H)-yl)acetamide], for which the negative-log IC50 (pIC50) is 4.00 to 5.00. With `CCNC(=O)Cn1nc(-c2nc(-c3cccc(Cl)c3)cs2)ccc1=O` [Compound 81, 2-(3-(4-(3-chlorophenyl)thiazol-2-yl)-6-oxopyridazin-1(6H)-yl)-N-ethylacetamide], the pIC50 was under 4.00.

Regarding `Cn1cc(-c2ccc(=O)n(CC(=O)NCc3ccccc3Cl)n2)cn1` [Compound 54, N-(2-chlorobenzyl)-2-(3-(1-methyl-1H-pyrazol-4-yl)-6-oxopyridazin-1(6H)-yl)acetamide], the pIC50 is 4.00 to 5.00. Next, `CCNC(=O)Cn1nc(-c2nc(-c3cc(F)cc(F)c3)no2)ccc1=O` [Compound 9, 2-(3-(3-(3,5-difluorophenyl)-1,2,4-oxadiazol-5-yl)-6-oxopyridazin-1(6H)-yl)-N-ethylacetamide]: at least 5.00; `O=c1ccc(-c2nc(-c3cccc(Cl)c3)no2)cn1Cc1cncc(F)c1` [Compound 86, 5-(3-(3-chlorophenyl)-1,2,4-oxadiazol-5-yl)-1-((5-fluoropyridin-3-yl)methyl)pyridin-2(1H)-one]: at least 5.00; `Cc1cccc(-c2noc(-c3ccc(=O)n(Cc4ccc(Cl)nc4)c3)n2)c1` [Compound 87, 1-((6-chloropyridin-3-yl)methyl)-5-(3-(m-tolyl)-1,2,4-oxadiazol-5-yl)pyridin-2(1H)-one]: at least 5.00.

Take `O=c1ccc(-c2nc(-c3ccccc3Cl)no2)cn1Cc1noc(C2CC2)n1` [Compound 113, 5-(3-(2-chlorophenyl)-1,2,4-oxadiazol-5-yl)-1-((5-cyclopropyl-1,2,4-oxadiazol-3-yl)methyl)pyridin-2(lH)-one]: the pIC50 is under 3.92. As to `O=C(Cn1nc(-c2cccs2)ccc1=O)Nc1ccccc1F` [Compound 41, N-(2-fluorophenyl)-2-(6-oxo-3-(thiophen-2-yl)pyridazin-1(6H)-yl)acetamide], the pIC50 is 4.00 to 5.00.

Turning to `COCCn1nc(-c2nc(-c3ccc(F)c(C)c3)no2)ccc1=O` [Compound 74, 6-(3-(4-fluoro-3-methylphenyl)-l,2,4-oxadiazol-5-yl)-2-(2-methoxyethyl)pyridazin-3(2H)-one], the pIC50 is 4.00 to 5.00.

Take `Cc1cccc(-c2noc(-c3ccc(=O)n(Cc4ccc(OC(F)F)nc4)c3)n2)c1` [Compound 93, 1-((6-(difluoromethoxy)pyridin-3-yl)methyl)-5-(3-(m-tolyl)-1,2,4-oxadiazol-5-yl)pyridin-2(1H)-one]: the pIC50 is at least 5.00.
